Measurements as given in US20230278972A1, “SUBSTITUTED HALOALKYL SULFONANILIDE HERBICIDES” (FMC Corporation, priority 2020, published 2023).

Key:
Type in all cases: in vivo
[1] = system: ragweed (common ragweed, Ambrosia artemisiifolia); test: Test A preemergence, ragweed; settings: Preemergence; for Ragweed plant response rating: visual injury on 0 to 100 scale (0 no effect, 100 complete control), approximately 10 days; for Plant response rating, Ragweed: 0 to 100 scale (0 no effect, 100 complete control)
Outline: (§1)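 Postemergence ratings come from foliar sprays onto one- to two-leaf plants of 2 to 10 cm grown in loam/sand; preemergence ratings come from a directed spray onto the soil of newly seeded pots. Formulation was a surfactant-containing non-phytotoxic solvent blend.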

[2] = system: blackgrass (Alopecurus myosuroides); test: Test A postemergence, blackgrass; settings: Postemergence, 0 to 100 scale (0 no effect, 100 complete control); for Blackgrass plant response rating: visual injury vs untreated controls after approx. 10 days
Outline: as §1

[3] = system: barnyardgrass (Echinochloa crus-galli); test: Test A postemergence, barnyardgrass; settings: Postemergence, 0 to 100 scale (0 no effect, 100 complete control); for Barnyardgrass plant response rating: visual injury vs untreated controls after approx. 10 days
Outline: (§2)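 After sowing into a sand-amended loam, pots for the preemergence test were treated by spraying directly onto soil. In parallel, seedlings at the one- to two-leaf stage and 2 to 10 cm tall were treated postemergence with the identical surfactant-containing formulation.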

kochia (Bassia scoparia) [4] = test: Test A postemergence, kochia; settings: Postemergence, 0 to 100 scale (0 no effect, 100 complete control); for Kochia plant response rating: visual injury vs untreated controls after approx. 10 days
Outline: as §1

kochia (Bassia scoparia) [5] = test: Test A preemergence, kochia; settings: Preemergence; for Kochia plant response rating: visual injury on 0 to 100 scale (0 no effect, 100 complete control), approximately 10 days; for Plant response rating, Kochia: 0 to 100 scale (0 no effect, 100 complete control)
Outline: as §1

corn (Zea mays) = test: Test A postemergence, corn; settings: Postemergence, 0 to 100 scale (0 no effect, 100 complete control); for Corn plant response rating: visual injury vs untreated controls after approx. 10 days
Outline: as §1

[6] = system: Ryegrass, Italian (Italian ryegrass, Lolium multiflorum); test: Test A preemergence, Ryegrass, Italian; settings: Preemergence; for Ryegrass, Italian plant response rating: visual injury on 0 to 100 scale (0 no effect, 100 complete control), approximately 10 days; for Plant response rating, Ryegrass, Italian: 0 to 100 scale (0 no effect, 100 complete control)
Outline: as §1

[7] = system: galium (catchweed bedstraw, Galium aparine); test: Test A postemergence, galium; settings: Postemergence, 0 to 100 scale (0 no effect, 100 complete control); for Galium plant response rating: visual injury vs untreated controls after approx. 10 days
Outline: as §2

[8] = system: wheat (Triticum aestivum); test: Test A postemergence, wheat; settings: Postemergence, 0 to 100 scale (0 no effect, 100 complete control); for Wheat plant response rating: visual injury vs untreated controls after approx. 10 days
Outline: as §2

[9] = system: Foxtail, Giant (giant foxtail, Setaria faberi); test: Test A postemergence, Foxtail, Giant; settings: Postemergence, 0 to 100 scale (0 no effect, 100 complete control); for Foxtail, Giant plant response rating: visual injury vs untreated controls after approx. 10 days
Outline: as §1

[10] = system: pigweed (Amaranthus retroflexus); test: Test A postemergence, pigweed; settings: Postemergence, 0 to 100 scale (0 no effect, 100 complete control); for Pigweed plant response rating: visual injury vs untreated controls after approx. 10 days
Outline: as §1

[11] = system: Foxtail, Giant (giant foxtail, Setaria faberi); test: Test A preemergence, Foxtail, Giant; settings: Preemergence; for Foxtail, Giant plant response rating: visual injury on 0 to 100 scale (0 no effect, 100 complete control), approximately 10 days; for Plant response rating, Foxtail, Giant: 0 to 100 scale (0 no effect, 100 complete control)
Outline: as §1

[12] = system: barnyardgrass (Echinochloa crus-galli); test: Test A preemergence, barnyardgrass; settings: Preemergence; for Barnyardgrass plant response rating: visual injury on 0 to 100 scale (0 no effect, 100 complete control), approximately 10 days; for Plant response rating, Barnyardgrass: 0 to 100 scale (0 no effect, 100 complete control)
Outline: as §1

[13] = system: ragweed (common ragweed, Ambrosia artemisiifolia); test: Test A postemergence, ragweed; settings: Postemergence, 0 to 100 scale (0 no effect, 100 complete control); for Ragweed plant response rating: visual injury vs untreated controls after approx. 10 days
Outline: as §1

[14] = system: Ryegrass, Italian (Italian ryegrass, Lolium multiflorum); test: Test A postemergence, Ryegrass, Italian; settings: Postemergence, 0 to 100 scale (0 no effect, 100 complete control); for Ryegrass, Italian plant response rating: visual injury vs untreated controls after approx. 10 days
Outline: as §1

[15] = system: pigweed (Amaranthus retroflexus); test: Test A preemergence, pigweed; settings: for Pigweed plant response rating: visual injury on 0 to 100 scale (0 no effect, 100 complete control), approximately 10 days; for Plant response rating, Pigweed: 0 to 100 scale (0 no effect, 100 complete control)
Outline: as §2

[16] = 125 g ai/ha, visual injury approx. 10 days
[17] = 500 g ai/ha, visual injury, approx. 10 days
[18] = 125 g ai/ha, visual injury, approx. 10 days

## Cc1cc(Cl)c(NS(=O)(=O)C(F)(F)F)cc1C(=O)N1CCSCC1 [Compound 26]
[1]; 125 g ai/ha
  Ragweed plant response rating: 20
[1]; 500 g ai/ha
  Plant response rating, Ragweed: 50
[2]; [16]
  Plant response rating, Blackgrass: 0
[2]; [17]
  Plant response rating, Blackgrass: 30
[3]; [16]
  Plant response rating, Barnyardgrass: 20
[3]; [17]
  Plant response rating, Barnyardgrass: 70
Kochia (Bassia scoparia) [4]; [16]
  Plant response rating, Kochia: 0
Kochia (Bassia scoparia) [4]; [17]
  Plant response rating, Kochia: 10
Kochia (Bassia scoparia) [5]; 125 g ai/ha
  Kochia plant response rating: 0
Kochia (Bassia scoparia) [5]; 500 g ai/ha
  Plant response rating, Kochia: 50
Corn (Zea mays); [16]
  Plant response rating, Corn: 0
Corn (Zea mays); [17]
  Plant response rating, Corn: 20
[6]; 125 g ai/ha
  Ryegrass, Italian plant response rating: 80
[6]; 500 g ai/ha
  Plant response rating, Ryegrass, Italian: 100
[7]; [16]
  Plant response rating, Galium: 70
[7]; [17]
  Plant response rating, Galium: 90
[8]; [16]
  Plant response rating, Wheat: 40
[8]; [17]
  Plant response rating, Wheat: 60
[9]; [16]
  Plant response rating, Foxtail, Giant: 10
[9]; [17]
  Plant response rating, Foxtail, Giant: 40
[10]; [16]
  Plant response rating, Pigweed: 50
[10]; [17]
  Plant response rating, Pigweed: 90
[11]; 125 g ai/ha
  Foxtail, Giant plant response rating: 100
[11]; 500 g ai/ha
  Plant response rating, Foxtail, Giant: 100
[12]; 125 g ai/ha
  Barnyardgrass plant response rating: 70
[12]; 500 g ai/ha
  Plant response rating, Barnyardgrass: 100
[13]; [16]
  Plant response rating, Ragweed: 50
[13]; [17]
  Plant response rating, Ragweed: 100
[14]; [16]
  Plant response rating, Ryegrass, Italian: 0
[14]; [17]
  Plant response rating, Ryegrass, Italian: 0
[15]; 125 g ai/ha
  Pigweed plant response rating: 80
[15]; 500 g ai/ha
  Plant response rating, Pigweed: 90

## Cc1cc(C)c(N(S(=O)(=O)C(F)(F)F)S(=O)(=O)C(F)(F)F)cc1C(=O)N1CCC(F)(F)CC1 [Compound 210]
[1]; [18]
  Plant response rating, Ragweed: 80
[1]; 500 g ai/ha
  Plant response rating, Ragweed: 90
[2]; 125 g ai/ha
  Plant response rating, Blackgrass: 0
[2]; 500 g ai/ha
  Blackgrass plant response rating: 0
[3]; 125 g ai/ha
  Plant response rating, Barnyardgrass: 20
[3]; 500 g ai/ha
  Barnyardgrass plant response rating: 90
Kochia (Bassia scoparia) [4]; 125 g ai/ha
  Plant response rating, Kochia: 50
Kochia (Bassia scoparia) [4]; 500 g ai/ha
  Kochia plant response rating: 90
Kochia (Bassia scoparia) [5]; [18]
  Plant response rating, Kochia: 30
Kochia (Bassia scoparia) [5]; 500 g ai/ha
  Plant response rating, Kochia: 90
Corn (Zea mays); 125 g ai/ha
  Plant response rating, Corn: 10
Corn (Zea mays); 500 g ai/ha
  Corn plant response rating: 40
[6]; [18]
  Plant response rating, Ryegrass, Italian: 50
[6]; 500 g ai/ha
  Plant response rating, Ryegrass, Italian: 100
[7]; 125 g ai/ha
  Plant response rating, Galium: 80
[7]; 500 g ai/ha
  Galium plant response rating: 90
[8]; 125 g ai/ha
  Plant response rating, Wheat: 0
[8]; 500 g ai/ha
  Wheat plant response rating: 60
[9]; 125 g ai/ha
  Plant response rating, Foxtail, Giant: 0
[9]; 500 g ai/ha
  Foxtail, Giant plant response rating: 30
[10]; 125 g ai/ha
  Plant response rating, Pigweed: 60
[10]; 500 g ai/ha
  Pigweed plant response rating: 100
[11]; [18]
  Plant response rating, Foxtail, Giant: 90
[11]; 500 g ai/ha
  Plant response rating, Foxtail, Giant: 100
[12]; [18]
  Plant response rating, Barnyardgrass: 90
[12]; 500 g ai/ha
  Plant response rating, Barnyardgrass: 100
[13]; 125 g ai/ha
  Plant response rating, Ragweed: 80
[13]; 500 g ai/ha
  Ragweed plant response rating: 90
[14]; 125 g ai/ha
  Plant response rating, Ryegrass, Italian: 20
[14]; 500 g ai/ha
  Ryegrass, Italian plant response rating: 40
[15]; [18]
  Plant response rating, Pigweed: 100
[15]; 500 g ai/ha
  Plant response rating, Pigweed: 100

## Cc1cc(F)c(-c2ccnn(C)c2=O)cc1NS(=O)(=O)C(F)(F)F [Compound 63]
[1]; 125 g ai/ha
  Ragweed plant response rating: 30
[1]; 500 g ai/ha
  Plant response rating, Ragweed: 80
[2]; [16]
  Plant response rating, Blackgrass: 0
[2]; 500 g ai/ha
  Blackgrass plant response rating: 40
[3]; [16]
  Plant response rating, Barnyardgrass: 10
[3]; 500 g ai/ha
  Barnyardgrass plant response rating: 90
Kochia (Bassia scoparia) [4]; [16]
  Plant response rating, Kochia: 70
Kochia (Bassia scoparia) [4]; 500 g ai/ha
  Kochia plant response rating: 90
Kochia (Bassia scoparia) [5]; 125 g ai/ha
  Kochia plant response rating: 40
Kochia (Bassia scoparia) [5]; 500 g ai/ha
  Plant response rating, Kochia: 90
Corn (Zea mays); [16]
  Plant response rating, Corn: 0
Corn (Zea mays); 500 g ai/ha
  Corn plant response rating: 50
[6]; 125 g ai/ha
  Ryegrass, Italian plant response rating: 90
[6]; 500 g ai/ha
  Plant response rating, Ryegrass, Italian: 100
[7]; [16]
  Plant response rating, Galium: 90
[7]; 500 g ai/ha
  Galium plant response rating: 90
[8]; [16]
  Plant response rating, Wheat: 0
[8]; 500 g ai/ha
  Wheat plant response rating: 80
[9]; [16]
  Plant response rating, Foxtail, Giant: 70
[9]; 500 g ai/ha
  Foxtail, Giant plant response rating: 90
[10]; [16]
  Plant response rating, Pigweed: 30
[10]; 500 g ai/ha
  Pigweed plant response rating: 80
[11]; 125 g ai/ha
  Foxtail, Giant plant response rating: 90
[11]; 500 g ai/ha
  Plant response rating, Foxtail, Giant: 100
[12]; 125 g ai/ha
  Barnyardgrass plant response rating: 70
[12]; 500 g ai/ha
  Plant response rating, Barnyardgrass: 90
[13]; [16]
  Plant response rating, Ragweed: 10
[13]; 500 g ai/ha
  Ragweed plant response rating: 60
[14]; [16]
  Plant response rating, Ryegrass, Italian: 30
[14]; 500 g ai/ha
  Ryegrass, Italian plant response rating: 70
[15]; 125 g ai/ha
  Pigweed plant response rating: 70
[15]; 500 g ai/ha
  Plant response rating, Pigweed: 90
